Measured values: patent publication US20230277597A1, “HAPLOIDENTICAL MIXED CHIMERISM FOR TREATING AUTOIMMUNE DISEASES” (CITY OF HOPE, priority 2020, published 2023)

Test system: Foxp3^+ Treg cells
Experiment: In vivo Treg depletion with diphtheria toxin in Haplo-MC NOD mice carrying Foxp3^DTR
Design: species or system mouse
Conditions: for mice insulitis free in all the evaluated islets: 3 weeks after first injection

## diphtheria toxin [DT]
DT every 3 days for 21 days, H-2^b/g7 mixed chimeric NOD mice
  insulitis after depletion of donor-type or host-type Treg cells: significant but moderate recurrence of insulitis, without causing hyperglycemia
DT every 3 days for 21 days, donor cells carrying Foxp3^DTR
  reduction of donor-type Treg: ~95%
DT every 3 days for 21 days, host cells carrying Foxp3^DTR
  reduction of host-type Treg: ~90%
donor-type Treg depleted chimeric mice
  mice insulitis free in all the evaluated islets: 50%
host-type Treg depleted chimeric mice
  mice insulitis free in all the evaluated islets: 33%
